In patent US20250084056A1, “SUBSTITUTED OXOISOINDOLINYL PIPERIDINE-2,6-DIONE COMPOUNDS” (BRISTOL-MYERS SQUIBB COMPANY, priority 2023, published 2025):

How the values were obtained:
Type in all cases: cell-based
[1] = test system: Phospho-Rb (Ser807/811); assay: Phospho-Retinoblastoma (pRB) Cellular Assay; details: Homo sapiens, OVCAR-3, NIH OVCAR3 cells, 24 hours; for IC50: concentration giving 50% response; for Emax: maximum response, reference compound at 10 μM = 100%, read-out: pRB Ymax
In short: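 Phospho-Rb (Ser807/811) kit read-out on EnVision after lysis (≥4 h, room temperature, dark) of OVCAR3 cells exposed to compound dilutions for 24 h. IC50 and maximum response Ymax are relative to a 10 μM reference compound defining 100%.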

[2] = target: GSPT1 (Homo sapiens, UniProt P15170+Q96SW2); assay: GSPT1 Cellular Degradation Assay (DF15-GSPT1-ePL); design: expressed in transfected cells; details: DF15-GSPT1-ePL cells, 20 hours
Chain of GSPT1 (P15170 whole entry, the tested form may be a part): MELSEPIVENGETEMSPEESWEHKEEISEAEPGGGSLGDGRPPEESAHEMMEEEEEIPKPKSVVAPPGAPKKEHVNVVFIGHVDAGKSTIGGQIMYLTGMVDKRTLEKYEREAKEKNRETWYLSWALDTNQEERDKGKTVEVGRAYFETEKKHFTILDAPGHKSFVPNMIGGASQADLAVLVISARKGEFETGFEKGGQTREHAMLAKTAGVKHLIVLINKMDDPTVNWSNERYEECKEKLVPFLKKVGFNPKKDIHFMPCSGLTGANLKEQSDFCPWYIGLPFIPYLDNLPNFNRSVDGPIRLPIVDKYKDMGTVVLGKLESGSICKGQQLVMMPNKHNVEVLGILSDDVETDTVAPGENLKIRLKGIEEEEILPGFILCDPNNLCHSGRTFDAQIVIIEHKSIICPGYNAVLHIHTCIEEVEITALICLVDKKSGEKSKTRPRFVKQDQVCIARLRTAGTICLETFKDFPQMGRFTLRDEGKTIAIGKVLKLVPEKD
Chain of GSPT1 (Q96SW2 whole entry, the tested form may be a part): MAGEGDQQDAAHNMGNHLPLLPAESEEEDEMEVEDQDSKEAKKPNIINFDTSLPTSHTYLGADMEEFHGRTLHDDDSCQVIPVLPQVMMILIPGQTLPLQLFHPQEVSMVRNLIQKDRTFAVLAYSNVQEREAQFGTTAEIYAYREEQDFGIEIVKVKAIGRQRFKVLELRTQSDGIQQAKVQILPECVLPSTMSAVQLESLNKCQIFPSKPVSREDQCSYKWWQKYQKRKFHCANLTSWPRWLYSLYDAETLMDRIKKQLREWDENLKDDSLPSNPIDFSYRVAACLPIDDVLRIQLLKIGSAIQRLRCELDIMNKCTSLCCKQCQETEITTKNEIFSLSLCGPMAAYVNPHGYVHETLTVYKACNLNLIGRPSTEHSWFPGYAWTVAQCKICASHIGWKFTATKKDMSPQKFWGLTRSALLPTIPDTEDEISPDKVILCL
Chain of GSPT1 (Q16531 whole entry partner, the tested form may be a part): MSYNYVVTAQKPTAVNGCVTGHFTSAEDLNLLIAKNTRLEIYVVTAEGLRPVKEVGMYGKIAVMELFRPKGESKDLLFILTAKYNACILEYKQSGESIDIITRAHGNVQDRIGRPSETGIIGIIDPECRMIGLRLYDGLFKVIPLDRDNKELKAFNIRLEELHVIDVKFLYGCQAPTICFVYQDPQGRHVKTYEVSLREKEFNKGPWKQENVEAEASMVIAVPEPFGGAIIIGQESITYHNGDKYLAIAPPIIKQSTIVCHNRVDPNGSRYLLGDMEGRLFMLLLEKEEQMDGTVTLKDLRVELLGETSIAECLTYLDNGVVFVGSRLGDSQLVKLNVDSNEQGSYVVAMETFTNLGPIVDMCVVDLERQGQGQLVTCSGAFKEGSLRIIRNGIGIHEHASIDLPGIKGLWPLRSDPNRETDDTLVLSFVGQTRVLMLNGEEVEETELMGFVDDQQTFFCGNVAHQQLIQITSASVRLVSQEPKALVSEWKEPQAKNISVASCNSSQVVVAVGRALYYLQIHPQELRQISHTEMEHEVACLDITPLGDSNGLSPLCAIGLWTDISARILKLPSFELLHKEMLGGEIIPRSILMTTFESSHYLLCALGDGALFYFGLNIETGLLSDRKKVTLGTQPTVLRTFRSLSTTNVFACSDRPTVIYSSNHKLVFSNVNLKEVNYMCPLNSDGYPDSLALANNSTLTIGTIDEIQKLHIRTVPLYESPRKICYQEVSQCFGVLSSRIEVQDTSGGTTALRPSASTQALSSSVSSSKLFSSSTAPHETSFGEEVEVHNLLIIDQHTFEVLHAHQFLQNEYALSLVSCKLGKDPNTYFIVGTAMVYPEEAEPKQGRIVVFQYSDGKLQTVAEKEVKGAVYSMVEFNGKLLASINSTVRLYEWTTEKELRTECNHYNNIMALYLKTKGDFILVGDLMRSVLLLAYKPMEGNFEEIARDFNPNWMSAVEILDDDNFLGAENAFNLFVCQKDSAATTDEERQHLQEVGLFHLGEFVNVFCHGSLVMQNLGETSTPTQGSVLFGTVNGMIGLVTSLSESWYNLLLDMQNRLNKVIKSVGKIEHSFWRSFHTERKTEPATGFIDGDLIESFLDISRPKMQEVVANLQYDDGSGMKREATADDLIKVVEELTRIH
In short: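 DC50 and Dmax were derived from chemiluminescence, with 75% response set by the reference compound at […]. Readout was ePL enzyme-fragment complementation in a DF15 line expressing chimeric GSPT1. Cells were exposed to compound for 20 h at 37 °C in RPMI 1640 with 10% FBS, cooled 30 min, then lysed with substrate for 60 min.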

[3] = target: Cyclin E1 (Homo sapiens, UniProt P24864+Q96SW2); assay: Cyclin E1 Cellular Degradation Assay (MSD); design: endogenous in cells; host or cells: OVCAR3; details: for DC50 / Dmax: Cyclin E1 cellular degradation; for Dmax: maximum degradation; for Ratio of GSPT1 DC50/Cyclin E1 DC50: selectivity for degradation of Cyclin E1 over GSPT1
Chain of Cyclin E1 (P24864 whole entry): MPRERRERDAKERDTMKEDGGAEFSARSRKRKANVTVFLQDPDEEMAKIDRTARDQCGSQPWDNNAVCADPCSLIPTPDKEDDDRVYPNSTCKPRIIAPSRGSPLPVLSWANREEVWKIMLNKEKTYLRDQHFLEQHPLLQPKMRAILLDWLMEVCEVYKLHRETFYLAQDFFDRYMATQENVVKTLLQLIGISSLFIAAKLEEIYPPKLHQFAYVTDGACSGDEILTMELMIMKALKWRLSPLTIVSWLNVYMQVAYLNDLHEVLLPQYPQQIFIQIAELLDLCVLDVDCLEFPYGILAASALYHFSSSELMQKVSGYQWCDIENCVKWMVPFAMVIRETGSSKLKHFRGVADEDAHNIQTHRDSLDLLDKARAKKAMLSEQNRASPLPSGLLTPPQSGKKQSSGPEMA
Chain of Cyclin E1 (Q96SW2 whole entry): as the sequence (Q96SW2 whole entry, the tested form may be a part) above
Chain of Cyclin E1 (Q16531 whole entry partner): as the sequence (Q16531 whole entry partner, the tested form may be a part) above
In short: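 Cyclin E1 remaining after 24 h compound exposure of OVCAR3 cells was quantified in lysates by electrochemiluminescent MSD sandwich assay. DC50 (50% response concentration) and Dmax (maximum response) were calculated, with 110% response set by a reference compound at […].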

Row | Structure (SMILES) | IC50 [1] [nM] | Emax [1] [%] | DC50 [2] [nM] | Dmax [2] [%] | DC50 [3] [nM] | Dmax [3] [%] | Ratio of GSPT1 DC50/Cyclin E1 DC50 [3]
1 | COc1c(COC(=O)Nc2ccc(Oc3ccc(F)cc3Cl)cc2C)ccc2c1C(=O)N(C1CCC(=O)NC1=O)C2 (centres unmarked) [Example 103, [2-(2,6-dioxopiperidin-3-yl)-4-methoxy-3-oxo-2,3-dihydro-1H-isoindol-5-yl]methyl N-[4-(2-chloro-4-fluorophenoxy)-2-methylphenyl]carbamate] | 86 | 100 | > 14000 | 22 | 148 | 107 | >95
2 | COc1cc(Oc2ccccc2C(F)F)ccc1NC(=O)OCc1ccc2c(c1OC)C(=O)N(C1CCC(=O)NC1=O)C2 (centres unmarked) [Example 88, [2-(2,6-dioxopiperidin-3-yl)-4-methoxy-3-oxo-2,3-dihydro-1H-isoindol-5-yl]methyl N-{4-[2-(difluoromethyl)phenoxy]-2-methoxyphenyl}carbamate] | 227 | 10 | > 14000 | 30 | 203 | 104 | >69
3 | O=C1CCC(N2Cc3ccc(COC(=O)Nc4ccc(Oc5ccc(F)c(F)c5)cc4)c(OCC(=O)N4CCOCC4)c3C2=O)C(=O)N1 (centres unmarked) [Example 178, [2-(2,6-dioxopiperidin-3-yl)-4-[2-(morpholin-4-yl)-2-oxoethoxy]-3-oxo-2,3-dihydro-1H-isoindol-5-yl]methyl N-[4-(3,4-difluorophenoxy)phenyl]carbamate] | 131 | 126 | > 14000 | 16 | 110 | 105 | >127
4 | COc1cc(Oc2cc(F)c(F)cc2Cl)ccc1NC(=O)OCc1ccc2c(c1OC)C(=O)N(C1CCC(=O)NC1=O)C2 (centres unmarked) [Example 108, [2-(2,6-dioxopiperidin-3-yl)-4-methoxy-3-oxo-2,3-dihydro-1H-isoindol-5-yl]methyl N-[4-(2-chloro-4,5-difluorophenoxy)-2-methoxyphenyl]carbamate] | 111 | 112 | > 14000 | 24 | 99 | 106 | >142
5 | COc1c(COC(=O)Nc2ccc(Oc3ccc(Cl)c(F)c3)cc2)ccc2c1C(=O)N(C1CCC(=O)NC1=O)C2 (centres unmarked) [Example 71, [2-(2,6-dioxopiperidin-3-yl)-4-methoxy-3-oxo-2,3-dihydro-1H-isoindol-5-yl]methyl N-[4-(4-chloro-3-fluorophenoxy)phenyl]carbamate] | 234 | 97 | > 14000 | 27 | 241 | 105 | >58
6 | COc1c(COC(=O)Nc2ccc(Oc3cc(F)c(F)c(F)c3)cc2Cl)ccc2c1C(=O)N(C1CCC(=O)NC1=O)C2 (centres unmarked) [Example 25, [2-(2,6-dioxopiperidin-3-yl)-4-methoxy-3-oxo-2,3-dihydro-1H-isoindol-5-yl]methyl N-[2-chloro-4-(3,4,5-trifluorophenoxy)phenyl]carbamate] | 187 | 96 | > 14000 | 37 | 184 | 107 | >76
7 | COc1c(COC(=O)Nc2ccc(Oc3cc(F)c(F)cc3Cl)cc2F)ccc2c1C(=O)N(C1CCC(=O)NC1=O)C2 (centres unmarked) [Example 109, [2-(2,6-dioxopiperidin-3-yl)-4-methoxy-3-oxo-2,3-dihydro-1H-isoindol-5-yl]methyl N-[4-(2-chloro-4,5-difluorophenoxy)-2-fluorophenyl]carbamate] | 66 | 114 | > 14000 | 42 | 111 | 107 | >127
8 | O=C1CCC(N2Cc3ccc(COC(=O)Nc4ccc(Oc5ccc(F)c(F)c5)cc4)c(O[C@H]4CC[C@@H](O)CC4)c3C2=O)C(=O)N1 (stereo partly drawn) [Example 167, [2-(2,6-dioxopiperidin-3-yl)-3-oxo-4-{[(1S,4S)-4-hydroxycyclohexyl]oxy}-2,3-dihydro-1H-isoindol-5-yl]methyl N-[4-(3,4-difluorophenoxy)phenyl]carbamate] | 8 | 148 | > 14000 | 6 | 13 | 111 | >1,042
9 | COc1c(COC(=O)Nc2ccc(Oc3ccc(F)cc3C(F)F)cc2)ccc2c1C(=O)N(C1CCC(=O)NC1=O)C2 (centres unmarked) [Example 89, [2-(2,6-dioxopiperidin-3-yl)-4-methoxy-3-oxo-2,3-dihydro-1H-isoindol-5-yl]methyl N-{4-[2-(difluoromethyl)-4-fluorophenoxy]phenyl}carbamate] | 159 | 108 | > 14000 | 42 | 289 | 101 | >48
10 | CC(C)Oc1c(COC(=O)Nc2ccc(Oc3ccccc3F)cc2)ccc2c1C(=O)N(C1CCC(=O)NC1=O)C2 (centres unmarked) [Example 121, [2-(2,6-dioxopiperidin-3-yl)-3-oxo-4-(propan-2-yloxy)-2,3-dihydro-1H-isoindol-5-yl]methyl N-[4-(2-fluorophenoxy)phenyl]carbamate] | 40 | 125 | > 14000 | 9 | 53 | 107 | >263
11 | COc1c(COC(=O)Nc2ccc(Oc3cc(F)c(F)cc3F)cc2C)ccc2c1C(=O)N(C1CCC(=O)NC1=O)C2 (centres unmarked) [Example 45, [2-(2,6-dioxopiperidin-3-yl)-4-methoxy-3-oxo-2,3-dihydro-1H-isoindol-5-yl]methyl N-[2-methyl-4-(2,4,5-trifluorophenoxy)phenyl]carbamate] | 112 | 116 | > 14000 | 38 | 129 | 112 | >108
12 | O=C1CCC(N2Cc3ccc(COC(=O)Nc4ccc(Oc5ccccc5)cc4)c(OC4CCOCC4)c3C2=O)C(=O)N1 (centres unmarked) [Example 134, [2-(2,6-dioxopiperidin-3-yl)-4-(oxan-4-yloxy)-3-oxo-2,3-dihydro-1H-isoindol-5-yl]methyl N-(4-phenoxyphenyl)carbamate] | 14 | 144 | > 14000 | 0 | 13 | 107 | >1,066
13 | COc1cc(Oc2ccc(F)cc2C)ccc1NC(=O)OCc1ccc2c(c1OC)C(=O)N(C1CCC(=O)NC1=O)C2 (centres unmarked) [Example 75, [2-(2,6-dioxopiperidin-3-yl)-4-methoxy-3-oxo-2,3-dihydro-1H-isoindol-5-yl]methyl N-[4-(4-fluoro-2-methylphenoxy)-2-methoxyphenyl]carbamate] | 287 | 120 | > 14000 | 23 | 328 | 109 | >43
14 | O=C1CCC(N2Cc3ccc(COC(=O)Nc4ccc(Oc5ccc(F)c(F)c5)cc4)c(OC4CCCCC4)c3C2=O)C(=O)N1 (centres unmarked) [Example 137, [4-(cyclohexyloxy)-2-(2,6-dioxopiperidin-3-yl)-3-oxo-2,3-dihydro-1H-isoindol-5-yl]methyl N-[4-(3,4-difluorophenoxy)phenyl]carbamate] | 19 | 123 | > 14000 | 1 | 26 | 108 | >547
15 | COc1c(COC(=O)Nc2ccc(Oc3cccc(Cl)c3Cl)cc2F)ccc2c1C(=O)N(C1CCC(=O)NC1=O)C2 (centres unmarked) [Example 116, [2-(2,6-dioxopiperidin-3-yl)-4-methoxy-3-oxo-2,3-dihydro-1H-isoindol-5-yl]methyl N-[4-(2,3-dichlorophenoxy)-2-fluorophenyl]carbamate] | 73 | 107 | > 14000 | 43 | 87 | 110 | >160
16 | COc1c(COC(=O)Nc2ccc(Oc3ccc(F)c(C)c3)cc2C)ccc2c1C(=O)N(C1CCC(=O)NC1=O)C2 (centres unmarked) [Example 82, [2-(2,6-dioxopiperidin-3-yl)-4-methoxy-3-oxo-2,3-dihydro-1H-isoindol-5-yl]methyl N-[4-(4-fluoro-3-methylphenoxy)-2-methylphenyl]carbamate] | 354 | 97 | > 14000 | 25 | 327 | 109 | >43
17 | CC(C)(O)COc1c(COC(=O)Nc2ccc(Oc3ccc(F)cc3F)cc2F)ccc2c1C(=O)N(C1CCC(=O)NC1=O)C2 (centres unmarked) [Example 163, [2-(2,6-dioxopiperidin-3-yl)-4-(2-hydroxy-2-methylpropoxy)-3-oxo-2,3-dihydro-1H-isoindol-5-yl]methyl N-[4-(2,4-difluorophenoxy)-2-fluorophenyl]carbamate] | 112 | 137 | > 14000 | 7 | 15 | 110 | >921
